The subject of test [1] is MUC5AC protein. The test is described as follows: Inhibition of MUC5AC protein production (immunoassay) by the compounds. The following applies: MUC5AC secretion, TNF-α 20 ng/mL. In kind it is cell-based, human. How it is done:
For immunoassay of the resulting MUC5AC, the supernatant (50 uL) recovered was dispensed on to a 96-well plate and dried in a thermostat set at 50° C. It was washed with PBS supplemented with 1% BSA and reacted with an MUC5AC antibody (abcam, USA) at room temperature for 1 hour. A secondary antibody was dispensed thereto for reaction for 1 hour. It was washed again and then reacted with a 3,3′,5,5′-tetramethylbenzidine peroxide solution for 20 minutes. After the reaction was stopped with a sulfuric acid solution, the degree of color development was measured at 450 nm.
As a result, as shown in the following Table 6, the amount of MUCSAC secretion increased in the group treated with TNF-α.

In test [2] the test system is reactive oxygen species. Nature of the test: Production of active oxygen species in BALF of the COPD model (DCF-DA). It counts as in vivo, C57BL/6N mice. The following applies: for Active oxygen inhibition rate (%) / production of active oxygen species (in words): vs COPD-induced group; for production of active oxygen species (in words): 15 and 30 mg/kg. The method, then:
Production of active oxygen species in the bronchoalveolar lavage fluid obtained in <Test Example 6-3> above was confirmed by the following method.
Specifically, the separated BALF (200 μL) was treated to the final concentration of 20 μM of DCF-DA (dihydrodichlorofluorescein diacetate, Sigma-Aldrich, USA), followed by culturing for 30 minutes and measurement using Fluorescence (Molecular Device, USA). The inhibition rate was calculated by Equation 3 above.

For test [3], the system named is IL-6. Nature of the test: IL-6 level in BALF of the COPD model (ELISA). It counts as in vivo, C57BL/6N mice. The following applies: vs COPD-induced group; for IL-6 inhibition rate (%): BALF. The method, then: (§1) Cytokines were measured in the cell supernatant obtained in <Test Example 6-3> above by the following method. Specifically, the levels of IL-6 (R & D System, USA) and TNF-α (BD Bioscience, USA) in the separated BALF were measured by enzyme-linked immuno-sorbent assay (ELISA). Each cytokine analysis was carried out according to the manufacturer's test method.
On the technique in general: In an ELISA, binding on a coated surface is turned into a signal by an enzyme label.

For test [4], the system named is inflammatory cells in the bronchoalveolar lavage fluid. Nature of the test: Inflammatory cells in bronchoalveolar lavage fluid of the COPD mouse model (cigarette smoke + LPS). It counts as in vivo, C57BL/6N mice. The following applies: BALF, vs COPD-induced group. How it is done:
Six-week-old male SPF (specific pathogen-free) C57BL/6N mice (22 to 24 g) were supplied by Koatech (Korea). These animals were fed with a sufficient amount of solid feed (no antibiotics, Samyang Feed Co.) and water until the day of the experiment. They were allowed to adapt for 1 week in a light-dark cycle environment at a temperature of 22±2° C. and a humidity of 55±15%, and then subjected to the experiment.
The animal model was exposed to cigarette smoke to induce chronic obstructive pulmonary disease. 3R4F Kentuchy Reference Cigarettes as standard cigarettes for use to generate cigarette smoke were supplied by University of California (USA). The standard cigarettes contain 9.4 mg of tar, 11 mg of total particle matter (TPM), and 12 mg of carbon monoxide per 1 cigarette. The standard cigarettes were used after harmonization for 48 hours to 72 hours at a temperature of 22±1° C. and a humidity of 60±2%. Further, Cigarette Smoke Generator manufactured by Korea BioLink (Korea) was used for exposure to cigarette smoke. Cigarette smoke was inhaled for 1 hour (8 pcs/hour) for 7 days from 1 hour after oral administration of a sample. 10 μg of LPS (lipopolysaccharide) in PBS 50 μL was injected intranasally to each mouse on the 4th day of the experiment after the mouse was anesthetized with zoletyl 1 hour before the exposure to cigarette smoke. The smoking condition was 8 puffs per 1 standard cigarette (volume: 45 mL, duration: 2 seconds, and interval: 1 time/min).
The active fraction of Magnoliae flos (15, 30 mg/kg) and roflumilast (10 mg/kg) as therapeutic substances were dissolved in 0.5% sodium carboxymethyl cellulose and were orally administered 1 hour before the exposure to cigarette smoke.
The experimental groups were divided into (i) normal control (NC) group; (ii) cigarette smoke+LPS exposure group (COPD); (iii) experimental group administered with roflumilast (ROF) (10 mg/kg, p.o) 1 hour before the exposure to cigarette smoke+LPS; and (iv) experimental group administered with the active fraction of Magnoliae flos (15, 30 mg/kg, p.o; Magnoliae flos 15 and Magnoliae flos 30) 1 hour before the exposure to cigarette smoke+LPS. […] Then, they were administered in the same manner as above.
The bronchial alveolar lavage fluid was separated from the animal model treated with the active fraction and the compounds of Magnoliae flos in <Test Example 6-2> above in the following manner, and the number of inflammatory cells was measured.
Specifically, a mouse sonde was inserted into the bronchial tube, a 1 mL syringe containing 0.7 mL of DPBS (Dulbecco's Phosphate-Buffered Saline) was connected thereto, and DPBS was injected into the lung. The injected DPBS was recovered, and this procedure was repeated twice. The bronchoalveolar lavage fluid separated by DPBS was centrifuged at 1,500 rpm for 15 minutes to make a cell pellet. The supernatant was stored frozen at −70° C. for cytokine analysis. Each cell obtained was suspended in DPBS, attached to a slide glass using a cytospin centrifuge, and Diff-Quik stained. The number of inflammatory cells in each sample was counted through microscopic examination, and the inhibition rate was calculated according to the following Equation 3.
Inhibition rate=(Value of COPD-induced group−value of target substance administered group)×100/(Value of COPD-induced group) [Equation 3]

Test [5] relates to TNF-α. Nature of the test: TNF-α level in BALF of the COPD model (ELISA). It counts as in vivo, C57BL/6N mice. The following applies: vs COPD-induced group; for TNF-α inhibition rate (%): BALF. How it is done:
as §1

SMILES strings stand for the structures.

In the case of `COc1ccc([C@@H]2OC[C@H]3[C@@H]2CO[C@@H]3c2ccc3c(c2)OCO3)cc1OC` [Compound S7, fargesin], the “Inhibition rate (%)” value in test [1] (2.5 μM) is reported as 0.79%; in test [1] (5 μM), 1.69%; in test [1] (10 μM), 11.05%. Moreover, the “rate of inhibiting reactive oxygen compared with ROF drug control group (in words)” value in test [2] (15 mg/kg) and in test [2] (30 mg/kg) was “higher rates of inhibiting reactive oxygen than that of the drug control group treated with ROF” throughout. The figures for the “Active oxygen inhibition rate (%)” value in test [2] (15 mg/kg p.o.) and in test [2] (30 mg/kg p.o.) were 47.5 ± 5.2% and 39.6 ± 6.9%, respectively. Besides, the “production of active oxygen species (in words)” value (“production” below) in test [2] is listed as “higher inhibition rate in the low dose groups”. In addition, the “IL-6 inhibition rate (%)” value is 50.8 ± 17.0% in test [3] (15 mg/kg p.o.) and 31.4 ± 9.6% in test [3] (30 mg/kg p.o.). For the same molecule, the “Inhibition rate of inflammatory cell infiltration (%) Macrophage” value (from here on “Inhibition rate … (%) Macrophage”) in test [4] (15 mg/kg p.o.) came out at 37.1 ± 2.8%; in test [4] (30 mg/kg p.o.) it was 34.8 ± 6.1%. Moreover, the figures for the “Inhibition rate of inflammatory cell infiltration (%) Neutrophil” value (“Inhibition rate … (%) Neutrophil” for short) in test [4] (15 mg/kg p.o.) and in test [4] (30 mg/kg p.o.) were 51.7 ± 6.3% and 38.2 ± 5.4%, respectively. The entries for the “Inhibition rate of inflammatory cell infiltration (%) Total inflammatory cells” value (“Inhibition rate … (%) Total inflammatory cells” for short) in test [4] (15 mg/kg p.o.) and in test [4] (30 mg/kg p.o.) were 44.1 ± 3.7% and 34.1 ± 6.1%, respectively. Further, in test [4], the “increase in inflammatory cells (in words)” value is “effectively inhibited”. Further, the results for the “TNF-α inhibition rate (%)” value in test [5] (15 mg/kg p.o.) and in test [5] (30 mg/kg p.o.) were 49.1 ± 2.6% and 34.1 ± 7.1%, respectively.

Turning to `COc1ccc([C@H]2OC[C@H]3[C@@H]2CO[C@@H]3c2ccc3c(c2)OCO3)cc1OC` [Compound S5, dimethoxyaschantin], the “Inhibition rate (%)” value was 13.93% in test [1] (2.5 μM), 10.12% in test [1] (5 μM) and 16.43% in test [1] (10 μM). In addition, the “Active oxygen inhibition rate (%)” value was 31.3 ± 2.5% in test [2] (15 mg/kg p.o.) and 39.7 ± 3.5% in test [2] (30 mg/kg p.o.). In addition, the “production” value in test [2] was “relatively higher inhibition rates in a manner depending on concentration”. In addition, the “IL-6 inhibition rate (%)” value in test [3] (15 mg/kg p.o.) is on record as 36.1 ± 5.5%; in test [3] (30 mg/kg p.o.) it was 48.8 ± 4.4%. Also, the “IL-6 in the bronchoalveolar lavage fluid (in words)” value in test [3] is recorded as “concentration-dependent decrease”. Further, the “Inhibition rate … (%) Macrophage” value in test [4] (15 mg/kg p.o.) is on record as 28.3 ± 7.2%; in test [4] (30 mg/kg p.o.), 37.1 ± 7.1%. In addition, the “Inhibition rate … (%) Neutrophil” value in test [4] (15 mg/kg p.o.) is 44.2 ± 4.1%; in test [4] (30 mg/kg p.o.), 53.2 ± 5.4%. The “Inhibition rate … (%) Total inflammatory cells” value in test [4] (15 mg/kg p.o.) is reported as 33.0 ± 4.4%; in test [4] (30 mg/kg p.o.) it was 43.2 ± 5.4%. Also, the “TNF-α inhibition rate (%)” value is given as 32.9 ± 4.8% in test [5] (15 mg/kg p.o.) and 39.1 ± 1.9% in test [5] (30 mg/kg p.o.). Further, the “TNF-α secretion in the bronchoalveolar lavage fluid (in words)” value in test [5] was “concentration-dependent inhibition”.

For `COc1cc([C@H]2OC[C@H]3[C@@H]2CO[C@@H]3c2ccc3c(c2)OCO3)cc(OC)c1OC` [Compound S6, aschantin], the “Inhibition rate (%)” value in test [1] (2.5 μM) worked out at 0.15%; in test [1] (5 μM), 4.19%; in test [1] (10 μM) it was 1.2%. Also, the “rate of inhibiting reactive oxygen compared with ROF drug control group (in words)” value in test [2] (15 mg/kg) and in test [2] (30 mg/kg) was “higher rates of inhibiting reactive oxygen than that of the drug control group treated with ROF” in each case. The results for the “Active oxygen inhibition rate (%)” value in test [2] (15 mg/kg p.o.) and in test [2] (30 mg/kg p.o.) were 30.6 ± 7.6% and 33.5 ± 6.9%, respectively. In addition, the “production” value in test [2] is reported as “relatively higher inhibition rates in a manner depending on concentration”. For the same molecule, the “IL-6 inhibition rate (%)” value in test [3] (15 mg/kg p.o.) turned out to be 59.3 ± 7.2%; in test [3] (30 mg/kg p.o.) it was 62.9 ± 6.0%. Moreover, in test [3], the “IL-6 in the bronchoalveolar lavage fluid (in words)” value is on record as “concentration-dependent decrease”. In addition, the “Inhibition rate … (%) Macrophage” value in test [4] (15 mg/kg p.o.) came to 37.8 ± 5.3%; in test [4] (30 mg/kg p.o.) it was 26.0 ± 5.6%. Also, the “Inhibition rate … (%) Neutrophil” value in test [4] (15 mg/kg p.o.) stood at 50.7 ± 5.9%; in test [4] (30 mg/kg p.o.) it was 66.3 ± 5.9%. Further, the “Inhibition rate … (%) Total inflammatory cells” value in test [4] (15 mg/kg p.o.) was 42.8 ± 2.4%; in test [4] (30 mg/kg p.o.), 43.7 ± 4.7%. In addition, the “increase in inflammatory cells (in words)” value in test [4] is recorded as “effectively inhibited”. Further, the “TNF-α inhibition rate (%)” value is reported as 39.8 ± 10.2% in test [5] (15 mg/kg p.o.) and 47.8 ± 4.7% in test [5] (30 mg/kg p.o.). For the same molecule, the “TNF-α secretion in the bronchoalveolar lavage fluid (in words)” value in test [5] is “concentration-dependent inhibition”.

Source of the values: US10376553B2, “Pharmaceutical composition for preventing and treating chronic obstructive lung disease containing, as active ingredient, Magnoliae flos extract, fraction, or active fraction thereof” (KOREA RESEARCH INSTITUTE OF BIOSCIENCE AND BIOTECHNOLOGY, priority 2015, dated 2019).
